Measured values: patent US9974784B2, “Inhibitors of activin-like receptor kinases” (The Texas A & M University System, priority 2015, dated 2018)

Columns and labels:
[1] = test system: BMP signaling; settings: pharmacological inhibition of BMP signaling; cited from earlier work
[2] = target: T1, ALK2 (Homo sapiens, UniProt Q04771); assay: SDS and native polyacrylamide gel electrophoresis analysis of ALK2 destabilization; settings: SDS-PAGE / gel electrophoresis, FIG. 8, increasing concentrations of test compound vs control compound
T1 sequence (Q04771 21-509): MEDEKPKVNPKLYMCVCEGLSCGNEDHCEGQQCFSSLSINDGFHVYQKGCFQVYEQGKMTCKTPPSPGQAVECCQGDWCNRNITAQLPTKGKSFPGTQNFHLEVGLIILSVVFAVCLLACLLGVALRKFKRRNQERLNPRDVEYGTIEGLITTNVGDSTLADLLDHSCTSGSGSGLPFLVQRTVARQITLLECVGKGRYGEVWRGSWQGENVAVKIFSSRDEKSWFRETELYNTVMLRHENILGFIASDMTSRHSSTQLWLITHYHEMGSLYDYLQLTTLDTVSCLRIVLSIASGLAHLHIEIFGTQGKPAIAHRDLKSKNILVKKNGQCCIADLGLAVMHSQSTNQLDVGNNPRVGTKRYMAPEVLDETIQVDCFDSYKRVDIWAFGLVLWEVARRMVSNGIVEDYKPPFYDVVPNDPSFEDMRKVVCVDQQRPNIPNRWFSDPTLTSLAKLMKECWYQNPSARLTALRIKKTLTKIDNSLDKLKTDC
Protocol: Destabilizing effects of a compound identified by a method of the claimed invention, were observed by SDS and native polyacrylamide gel electrophoresis analyses (FIG. 8), and were confirmed by monitoring protein unfolding with a hydrophobic fluoroprobe (SYPRO orange) in 96-well plate format with a quantitative PCR instrument (Thermofluor assay). The allosteric inhibitor shifted the melting temperature of Dorsomorphin-stabilized ALK2 from approximately 55° C. down to 35° C. in a concentration dependent manner that correlated with concentration dependent inhibition of ALK2 kinase activity.
The comparative stabilities of the kinase protein were tested at varying pH levels in the presence of compounds identified by the methods of the claimed invention. […] Thermofluor assays provide independent confirmation of the effect of decreasing pH on the stability (FIG. 10) and sensitivity to an allosteric destabilizer (FIG. 11) of the kinase protein. […] Hypoxic conditions typically occur in tissues that are faced with traumas such as those caused by surgery or injury.

[3] = target: T1, ALK2; assay: screening assay for compounds that bind an allosteric site of ALK2 and destabilize the protein
Source text: Screening assays were set up to identify compounds that were capable of binding to a specific location in ALK2. This location was a ring-shaped pocket that contains a single centrally located sidechain, that of a histidine in ALK1 and ALK2, and an aspartate in the other five receptor kinases of the family. Numerous compounds were docked in poses that wrap the scaffolds around the central “island” residue, with terminal groups oriented in a head-to-tail fashion. Covalent linkage of the juxtaposed groups to form macrocyclic compounds is likely feasible in many cases. Through reduction in the entropic cost of binding due to constraint of rotatable bonds, as well as other properties, macrocycles have become an attractive scaffold for medicinal chemists in modern drug discovery.
According to a further embodiment of the invention, a screening assay is carried out to identify compounds that bind to an allosteric site of ALK2 and cause destabilization of the protein.

Row | Compound | destabilization of ALK-2 [3] | other results
1 | c1ccc2c(-c3cnn4cc(-c5ccc(N6CCNCC6)cc5)cnc34)ccnc2c1 [LDN-193189] |  | effect on muscle [1]: leads to muscle wasting or cachexia
2 | Cc1onc(-c2ccccc2)c1C(=O)NCC1Cc2cccc(-c3ccccn3)c2O1 (centres unmarked) [compound 8, 5-methyl-3-phenyl-N-{[7-(2-pyridinyl)-2,3-dihydro-1-benzofuran-2-yl]methyl}-4-isoxazolecarboxamide] |  | destabilization of ALK2 receptor kinase [2]: destabilization of ALK2 receptor kinase
3 | Cc1cc(NS(=O)(=O)c2ccc3c(c2)C2C4CCC(C4)C2C(c2cccc(C(=O)O)c2)N3)no1 (centres unmarked) [compound 14, 3-{2-[(5-methyl-1,2-oxazol-3-yl)sulfamoyl]-5,6,6a,7,8,9,10,10a-octahydro-7,10-methanophenanthridin-6-yl}benzoic acid] | cause destabilization of ALK-2 | 
4 | Cc1nc(-c2cccc(S(=O)(=O)N3CCC(C(=O)NCCc4nc5ccccc5[nH]4)CC3)c2)no1 [compound 17, N-[2-(1H-1,3-benzodiazol-2-yl)ethyl]-1-[3-(5-methyl-1,2,4-oxadiazol-3-yl)benzenesulfonyl]piperidine-4-carboxamide] | cause destabilization of ALK-2 | 

Continued, in another order:

Row | destabilization of ALK-2 [3] | Compound | other results
5 | cause destabilization of ALK-2 | Cc1nc(-c2cccc(S(=O)(=O)N3CCC(C(=O)Nc4cccc5c4CCCC5)CC3)c2)no1 [compound 19, 1-[3-(5-methyl-1,2,4-oxadiazol-3-yl)benzenesulfonyl]-N-(5,6,7,8-tetrahydronaphthalen-1-yl)piperidine-4-carboxamide] | 
6 | cause destabilization of ALK-2 | Cc1nc(-c2cccc(N3CC(C(=O)N4CCN(Cc5ccc6c(c5)OCO6)CC4)CC3=O)c2)no1 (centres unmarked) [compound 20, 4-[4-(1,3-benzodioxol-5-ylmethyl)piperazine-1-carbonyl]-1-[3-(5-methyl-1,2,4-oxadiazol-3-yl)phenyl]pyrrolidin-2-one] | 
7 | cause destabilization of ALK-2 | Cc1nc(NS(=O)(=O)c2ccc3c(c2)C2C4CCC(C4)C2C(c2cccc(C(=O)O)c2)N3)oc1C (centres unmarked) [compound 24, 3-{2-[(4,5-dimethyl-1,3-oxazol-2-yl)sulfamoyl]-5,6,6a,7,8,9,10,10a-octahydro-7,10-methanophenanthridin-6-yl}benzoic acid] | 
8 | cause destabilization of ALK-2 | Cc1cccc(-c2cccc(NC(=O)C3CCCN(C(=O)c4ccnc(N)c4)C3)c2)c1 (centres unmarked) [compound 28, 1-(2-aminoisonicotinoyl)-N-(3′-methyl-3-biphenylyl)-3-piperidinecarboxamide] | 
